A short description of data set [1]: Cell viability measurement (MTS), Vero cells. Type of data set: cell-based. Conditions: monkey. How it is done: (§1) Experimental Example 3: Cell Viability Measurement
(§2) Vero cell line (VERO01WCB-1201, Ministry of Food and Drug Safety, Republic of Korea), Calu-3 cell line (KCLB #30055, Korea Cell Line Bank (KCLB), Republic of Korea), CellTiter 96® AQueous One Solution Cell Proliferation Assay kit (Promega, cat. #G3582), and Infinite M200 microplate reader (Tecan).
Vero cells were cultured at 37 °C and 5% CO2 in DMEM medium supplemented with 10% fetal bovine serum, 100 units/mL penicillin, and 100 μg/mL streptomycin.
(§3) Vero cells or Calu-3 cells were seeded in 96-well microplates and cultured for 24 hours until the cell confluency reached 20%. After the incubation, compounds were treated in DMSO at concentrations (1, 3, and 10 μM) to reach 0.5% v/v in each well, and reacted at 37 °C for 48 hours. Into each well of the incubated 96-well microplate, 3-(4,5-dimethylthiazol-2-yl)-5-(3-carboxymethoxyphenyl)-2-(4-sulfophenyl)-2H-tetrazolium salt (MTS) assay solution [CellTiter 96® AQueous One Solution Cell Proliferation Assay kit (Promega)] mixed with DMEM medium at a ratio of 1:5, was dispensed at 100 μL/well and incubated at 37 °C for 1 hour. The 490 nm and 690 nm absorbance was then measured using an Infinite M200 instrument.
(§4) The cell viability (also, referred to as cell survival rate) (%) by compound treatment was calculated using the following analysis method. The 690 nm background absorbance value was subtracted from the measured 490 nm absorbance value. Then, to obtain the cell viability of each test group, the viability of the DMSO-treated group that was not treated with the compound was set to 100% and then the relative viability 1 of each compound was calculated. Two to six repeated tests were performed to obtain the results, and the mean values of the results were categorized into the following ranges and shown in Table 5 below (A: 80% survived, B: 50-80% survived, N/A: not tested)

Data set [2] is described as follows: Cell viability measurement (MTS), Calu-3 cells. In kind it is cell-based. To be noted: human. How it is done:
as §1, §2
Calu-3 cells were cultured at 37 °C and 5% CO2 in MEM medium supplemented with 10% fetal bovine serum, 2.2 g/L sodium bicarbonate, 1% 100 units/mL penicillin, and 100 μg/mL streptomycin.
as §3, §4

Viability data for 22 compounds are collected here from patent US20260364068A1, “ANTIVIRAL USE OF HETEROARYL DERIVATIVE COMPOUND” (UIF (University Industry Foundation), Yonsei University, priority 2022, published 2026).

As a reminder, the viability is the share of living cells, or the viability signal relative to a control. Low readings indicate more harm to the cells, high ones less harm to the cells.

For `c1cc(Nc2ccc(-c3cccnn3)cn2)cc(-c2nc3ccccc3[nH]2)c1` [Example 56, N-[3-(1H-benzo[d]imidazol-2-yl)phenyl]-5-(pyridazin-3-yl)pyridin-2-amine], in data set [1], the viability at 48 h, 1 µM is more than 80% and the viability at 48 h, 10 µM was more than 80%. In data set [2], the viability at 48 h, 1 µM is more than 80% and the viability at 48 h, 3 µM lay in the range of 50 to 80%.

Turning to `CC(C)(C)c1ccc2nc(-c3cccc(Nc4ccc(-c5ccccc5)nn4)c3)[nH]c2c1` [Example 3, N-[3-(6-tert-butyl-1H-benzo[d]imidazol-2-yl)phenyl]-6-phenylpyridazin-3-amine], in data set [1], the viability at 48 h, 1 µM is more than 80% and the viability at 48 h, 3 µM is 50 to 80%.

Take `Fc1ccc2nc(-c3cccc(Nc4ccc(-c5ccccn5)cn4)c3)[nH]c2c1` [Example 58, N-(3-(6-fluoro-1H-benzo[d]imidazol-2-yl)phenyl)-[2,3′-bipyridine]-6′-amine]: in data set [1], the viability at 48 h, 1 µM is more than 80% and the viability at 48 h, 3 µM was more than 80%. In addition, the viability at 48 h, 1 µM in data set [2] was in the range of 50 to 80%.

In data set [1], `COC(=O)c1ccc2nc(-c3cccc(Nc4ccc(-c5cccnn5)cc4)c3)[nH]c2c1` [Example 61, methyl 2-(3-((4-(pyridazin-3-yl)phenyl)amino)phenyl)-1H-benzo[d]imidazol-6-carboxylate] yielded a viability at 48 h, 1 µM of more than 80%.

As for `Fc1ccc2nc(-c3cccc(Nc4ccc(-c5ccncn5)cn4)c3)[nH]c2c1` [Example 72, N-(3-(6-fluoro-1H-benzo[d]imidazol-2-yl)phenyl)-5-(pyrimidin-4-yl)pyridin-2-amine], in data set [1], the viability at 48 h, 3 µM was more than 80%.

In data set [1], `Fc1ccc2nc(-c3cccc(Nc4ccc(-c5cccnn5)cn4)c3)[nH]c2c1` [Example 55] had a viability at 48 h, 1 µM of more than 80% and a viability at 48 h, 10 µM of 50 to 80%.

Compound `FC(F)(F)c1ccc2nc(-c3cccc(Nc4ncc(-c5ccccc5)cn4)c3)[nH]c2c1` [Example 14, 5-phenyl-N-(3-(6-(trifluoromethyl)-1H-benzo[d]imidazol-2-yl)phenyl)pyrimidin-2-amine] returned a viability at 48 h, 1 µM in data set [1] of more than 80%.

As to `c1ccc(-c2ccc(Nc3cccc(-c4nc5ccccc5[nH]4)c3)nc2)nc1` [Example 59, N-[3-(1H-benzo[d]imidazol-2-yl)phenyl]-[2,3′-bipyridin]-6′-amine], the viability at 48 h, 1 µM in data set [1] was more than 80%. Besides, in data set [2], the viability at 48 h, 1 µM is more than 80% and the viability at 48 h, 3 µM lay within 50 to 80%.

In data set [1], `FC(F)(F)c1ccc2nc(-c3cccc(Nc4ncc(-c5cccnn5)cn4)c3)[nH]c2c1` [Example 52, 5-(pyridazin-3-yl)-N-(3-(6-(trifluoromethyl)-1H-benzo[d]imidazol-2-yl)phenyl)pyrimidin-2-amine] came in with a viability at 48 h, 1 µM of more than 80%; a viability at 48 h, 3 µM of more than 80%; a viability at 48 h, 10 µM of more than 80%. In data set [2], this compound gave a viability at 48 h, 1 µM of 50 to 80%; a viability at 48 h, 3 µM of 50 to 80%; a viability at 48 h, 10 µM of 50 to 80%.

In data set [1], `FC(F)(F)c1ccc2nc(-c3cccc(Nc4ccc(-c5ccccn5)cn4)c3)[nH]c2c1` [Example 57, N-{3-[6-(trifluoromethyl)-1H-benzo[d]imidazol-2-yl]phenyl}-[2,3′-bipyridin]-6′-amine] returned a viability at 48 h, 1 µM of more than 80%; a viability at 48 h, 3 µM of more than 80%; a viability at 48 h, 10 µM of 50 to 80%. In data set [2], this compound came in with a viability at 48 h, 1 µM of 50 to 80%.

On to `Fc1cccc(-c2ccc(Nc3cccc(-c4nc5ccc(C(F)(F)F)cc5[nH]4)c3)nc2)c1` [Example 18, 5-(3-fluorophenyl)-N-(3-(6-(trifluoromethyl)-1H-benzo[d]imidazol-2-yl)phenyl)pyridin-2-amine], for which, in data set [1], the viability at 48 h, 1 µM is more than 80% and the viability at 48 h, 10 µM lay within 50 to 80%.

In data set [1], `Fc1cc2nc(-c3cccc(Nc4ccc(-c5ccccc5)nn4)c3)[nH]c2cc1Br` [Example 4, N-[3-(6-bromo-5-fluoro-1H-benzo[d]imidazol-2-yl)phenyl]-6-phenylpyridazin-3-amine] had a viability at 48 h, 1 µM of more than 80%; a viability at 48 h, 3 µM of more than 80%; a viability at 48 h, 10 µM of 50 to 80%.

With `c1cncc(-c2ccc(Nc3cccc(-c4nc5ccccc5[nH]4)c3)cc2)c1` [Example 31, N-[3-(1H-benzo[d]imidazol-2-yl)phenyl]-4-(pyridin-3-yl)aniline], in data set [1], the viability at 48 h, 1 µM is more than 80% and the viability at 48 h, 10 µM lay in the range of 50 to 80%. The compound also gave a viability at 48 h, 1 µM in data set [2] of 50 to 80%.

In data set [1], `FC(F)(F)Oc1ccc2nc(-c3cccc(Nc4ccc(-c5ccccc5)nn4)c3)[nH]c2c1` [Example 6, 6-phenyl-N-(3-(6-(trifluoromethoxy)-1H-benzo[d]imidazol-2-yl)phenyl)pyridazin-3-amine] registered a viability at 48 h, 1 µM of more than 80% and a viability at 48 h, 3 µM of 50 to 80%.

Take `FC(F)(F)c1ccc2nc(-c3cccc(Nc4ccc(-c5ccccc5)nn4)c3)[nH]c2c1` [Example 1, 6-phenyl-N-(3-(6-(trifluoromethyl)-1H-benzo[d]imidazol-2-yl)phenyl)pyridazin-3-amine]: in data set [1], the viability at 48 h, 1 µM was more than 80% and the viability at 48 h, 3 µM is more than 80%.

For `c1ccc(-c2ccc(Nc3cccc(-c4nc5ccccc5[nH]4)c3)cn2)cc1` [Example 80, N-[3-(1H-benzo[d]imidazol-2-yl)phenyl]-6-phenyl-pyridin-3-amine], in data set [2], the viability at 48 h, 1 µM is more than 80% and the viability at 48 h, 3 µM lay in the range of 50 to 80%.

In data set [1], `Cc1cscc1-c1cnc(Nc2cccc(-c3nc4ccccc4[nH]3)c2)nc1` [Example 43, N-(3-(1H-benzo[d]imidazol-2-yl)phenyl)-5-(4-methylthiophen-3-yl)pyrimidin-2-amine] returned a viability at 48 h, 1 µM of more than 80% and a viability at 48 h, 10 µM of more than 80%. Further, in data set [2], the viability at 48 h, 1 µM is more than 80% and the viability at 48 h, 3 µM fell in the range of 50 to 80%.

In data set [2], `Clc1cc2[nH]c(-c3cccc(Nc4ncc(-c5cscn5)cn4)c3)nc2cn1` [Example 303, N-(3-(6-chloro-1H-imidazo[4,5-c]pyridin-2-yl)phenyl)-5-(thiazol-4-yl)pyrimidin-2-amine] displayed a viability at 48 h, 10 µM of 50 to 80%.

Take `FC(F)(F)c1cc2[nH]c(-c3cccc(Nc4ncc(-c5cccnn5)cn4)c3)nc2cn1` [Example 103, 5-pyridazin-3-yl-N-[3-[6-(trifluoromethyl)-1H-imidazo[4,5-c]pyridin-2-yl]phenyl]pyrimidin-2-amine]: in data set [2], the viability at 48 h, 1 µM is more than 80%; the viability at 48 h, 3 µM was more than 80%; the viability at 48 h, 10 µM is more than 80%.

As for `FC(F)(F)c1ccc2nc(-c3cccc(Nc4ccc(-c5ccccn5)cc4)c3)[nH]c2c1` [Example 98, N-[4-(2-pyridyl)phenyl]-3-[6-(trifluoromethyl)-1H-benzo[d]imidazol-2-yl]aniline], the viability at 48 h, 1 µM in data set [2] was in the range of 50 to 80%.

In turn, `FC(F)(F)c1ccc2nc(-c3cccc(Nc4ccc(-c5cnccn5)cc4)c3)[nH]c2c1` [Example 29, N-[4-(pyrazin-2-yl)phenyl]-3-[6-(trifluoromethyl)-1H-benzo[d]imidazol-2-yl]aniline] returned a viability at 48 h, 1 µM in data set [1] of more than 80%.

`c1cc(Nc2ccc(C3CCCCC3)cc2)cc(-c2nc3ccccc3[nH]2)c1` [Example 97, 3-(1H-benzo[d]imidazol-2-yl)-N-(4-cyclohexylphenyl)aniline]: in data set [2], the viability at 48 h, 1 µM was more than 80% and the viability at 48 h, 3 µM is 50 to 80%.
